In ChEMBL document CHEMBL4406813, “2-Amino-2,3-dihydro-1H-indene-5-carboxamide-Based Discoidin Domain Receptor 1 (DDR1) Inhibitors: Design, Synthesis, and in Vivo Antipancreatic Cancer Efficacy” (J Med Chem, 2019):

How the values were obtained:
in vivo [1] = conditions: Sprague-Dawley, rat, iv, 5 mg/kg
in vivo [2] = conditions: Sprague-Dawley, rat, iv, 5 mg/kg; remark: listed apart in the source
in vivo [3] = conditions: Sprague-Dawley, rat, po, 25 mg/kg

With `Cc1cn(-c2cc(NC(=O)c3ccc4c(c3)C[C@H](N(C)c3cncnc3)C4)cc(C(F)(F)F)c2)cn1` the Cmax (in vivo [1]) was 14700 ng/mL, the AUC(0-inf) (in vivo [2]) was 16900 ng·h/mL and the Cmax (in vivo [3]) was 15400 ng/mL.
